The source made the active and inactive calls.
How the values were obtained:
[1] = target: T1, Mu-type opioid receptor (Homo sapiens, UniProt P35372); test: HTS Image-Based Screen for Agonists of the MOR Receptor. [Related pubchem assays (depositor defined):AID1777, AID1785, AID1786, AID2133]; format: functional
[2] = target: T2, Kappa-type opioid receptor (Homo sapiens, UniProt P41145); test: kappa opioid receptor activation potency – imaging, image-based, SAR follow-up (AID 2359); format: functional
[3] = target: T2, Kappa-type opioid receptor; format: functional
[4] = target: T3, Delta-type opioid receptor (Homo sapiens, UniProt P41143); test: HTS Image-Based Screen for Antagonists of the DOR Receptor. [Related pubchem assays (depositor defined):AID1777, AID1785, AID1786, AID2133]; format: functional
[5] = target: T2, Kappa-type opioid receptor; format: functional; remark: listed apart in the source
[6] = target: T3, Delta-type opioid receptor; test: HTS Image-Based Screen for Agonists of the DOR Receptor. [Related pubchem assays (depositor defined):AID1777, AID1786, AID2133]; format: functional
[7] = target: T1, Mu-type opioid receptor; test: mu opioid receptor activators, image-based, SAR follow-up (AID 2352); format: functional
[8] = target: T2, Kappa-type opioid receptor; test: kappa opioid receptor blockers, image-based, SAR follow-up (AID 2348); format: functional
[9] = target: T3, Delta-type opioid receptor; test: delta opioid receptor blockers – image-based, SAR follow-up (AID 2357); format: functional
[10] = target: T3, Delta-type opioid receptor; test: DOR agonists, SAR follow-up, image-based (AID 2370); format: functional
[11] = target: T2, Kappa-type opioid receptor; test: SAR analysis of small molecule agonists of the kappa opioid receptor via a luminescent beta-arrestin assay. [Related pubchem assays (depositor defined):AID1777, AID1786, AID1966, AID2133, AID2136, AID2348, AID2352, AID2357, AID2359, AID2370, AID2420, AID2478, AID2491, AID2492, AID2493, AID2497, AID2498, AID2500, AID449737, AID488822, AID488842]; format: functional
[12] = target: T1, Mu-type opioid receptor; test: mu opioid receptor blockers – image-based, SAR follow-up (AID 2420); format: functional;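 further: compounds added before stimulation of receptor with agonist DAMGO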
[13] = target: T4, Sphingosine 1-phosphate receptor 4 (Homo sapiens, UniProt O95977); test: Fluorescence dose response cell-based high throughput screening assay for agonists of the Sphingosine 1-Phosphate Receptor 4 (S1P4). [Related pubchem assays: 1509 (Primary screen.), 1523 (Confirmation screen in triplicates.)]; format: functional
T4 sequence (O95977 whole entry): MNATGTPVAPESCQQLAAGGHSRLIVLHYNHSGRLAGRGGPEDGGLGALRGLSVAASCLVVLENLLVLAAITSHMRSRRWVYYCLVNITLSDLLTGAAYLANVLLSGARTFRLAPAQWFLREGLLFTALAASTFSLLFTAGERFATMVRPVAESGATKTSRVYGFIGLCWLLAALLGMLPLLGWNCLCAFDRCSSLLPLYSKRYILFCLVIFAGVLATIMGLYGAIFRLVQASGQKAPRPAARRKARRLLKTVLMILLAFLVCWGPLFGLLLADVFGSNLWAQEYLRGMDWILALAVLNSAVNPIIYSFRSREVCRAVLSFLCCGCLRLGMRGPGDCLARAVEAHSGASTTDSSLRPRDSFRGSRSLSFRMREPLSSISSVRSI

[14] = target: Sphingosine 1-phosphate receptor 1 (Homo sapiens, UniProt P21453); test: Fluorescence-based counterscreen assay for S1P4 agonists: Cell-based dose response high throughput screening assay to identify agonists of the Sphingosine 1-Phosphate Receptor 1 (S1P1). [Related pubchem assays (depositor defined):AID1509, AID1523, AID1801, AID463107, AID463118, AID463119, AID463122, AID463123, AID463129, AID463225, AID504400, AID504460]; format: functional
[15] = target: T5, 5-hydroxytryptamine receptor 1A (Homo sapiens, UniProt P08908); format: functional
T5 sequence (P08908 whole entry): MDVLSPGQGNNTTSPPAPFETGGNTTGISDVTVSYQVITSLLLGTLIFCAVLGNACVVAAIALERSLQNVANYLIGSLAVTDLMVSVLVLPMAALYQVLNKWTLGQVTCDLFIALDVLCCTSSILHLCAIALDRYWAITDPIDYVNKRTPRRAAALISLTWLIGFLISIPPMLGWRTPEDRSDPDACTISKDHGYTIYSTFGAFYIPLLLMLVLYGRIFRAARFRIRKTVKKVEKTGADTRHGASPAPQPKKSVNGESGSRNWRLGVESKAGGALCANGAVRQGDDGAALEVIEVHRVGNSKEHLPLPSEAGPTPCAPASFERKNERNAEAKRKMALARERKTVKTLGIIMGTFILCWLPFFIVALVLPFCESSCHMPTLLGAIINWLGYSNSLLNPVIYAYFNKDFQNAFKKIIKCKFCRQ

[16] = target: Sphingosine 1-phosphate receptor 2 (Homo sapiens, UniProt O95136); test: Dose Response Cell Based Assay for Agonists of the S1P2 Receptor. [Related pubchem assays: 729, 736, 843 ]; format: functional
[17] = target: T6, Tyrosine-protein phosphatase non-receptor type 22 (Homo sapiens, UniProt Q9Y2R2); test: SAR LYP1 Fluorescent Assay using pCAP substrate for In Vitro dose response studies - Set 2. [Related pubchem assays (depositor defined):AID1779, AID1784, AID2135, AID449727]; format: functional
T6 sequence (Q9Y2R2 whole entry): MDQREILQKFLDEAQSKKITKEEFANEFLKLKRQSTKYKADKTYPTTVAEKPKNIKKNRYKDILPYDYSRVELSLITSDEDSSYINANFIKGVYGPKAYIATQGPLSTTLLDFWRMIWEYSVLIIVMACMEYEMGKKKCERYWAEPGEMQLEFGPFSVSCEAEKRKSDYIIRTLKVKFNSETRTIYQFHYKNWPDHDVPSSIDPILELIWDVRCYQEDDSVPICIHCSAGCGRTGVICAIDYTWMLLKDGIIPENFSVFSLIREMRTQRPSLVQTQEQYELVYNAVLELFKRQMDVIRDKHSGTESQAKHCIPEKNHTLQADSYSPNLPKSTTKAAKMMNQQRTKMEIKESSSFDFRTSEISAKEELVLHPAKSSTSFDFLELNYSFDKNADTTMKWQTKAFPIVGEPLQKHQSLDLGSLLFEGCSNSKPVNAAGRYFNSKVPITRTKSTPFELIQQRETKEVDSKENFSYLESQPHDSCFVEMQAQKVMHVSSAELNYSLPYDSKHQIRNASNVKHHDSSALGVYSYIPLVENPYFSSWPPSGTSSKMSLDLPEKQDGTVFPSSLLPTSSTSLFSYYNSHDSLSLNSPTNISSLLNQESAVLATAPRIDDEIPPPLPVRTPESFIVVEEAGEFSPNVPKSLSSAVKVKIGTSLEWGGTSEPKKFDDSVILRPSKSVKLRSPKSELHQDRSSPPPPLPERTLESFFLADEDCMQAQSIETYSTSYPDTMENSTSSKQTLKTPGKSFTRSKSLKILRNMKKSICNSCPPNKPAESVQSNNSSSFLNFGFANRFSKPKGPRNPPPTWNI

[18] = target: T7, SUMO-activating enzyme (Homo sapiens, UniProt Q9UBT2); test: blockers of SAE1/SAE2–UBC9 SUMO transfer – biochemical, HTRF, uHTS, primary screen (AID 2006); format: protein-complex assay
[19] = target: T6, Tyrosine-protein phosphatase non-receptor type 22; test: SAR LYP1 Fluorescent Assay using OMFP substrate for In Vitro dose response studies - Set 2. [Related pubchem assays (depositor defined):AID1779, AID1784, AID2140, AID449726, AID488869]; format: functional
[20] = target: T6, Tyrosine-protein phosphatase non-receptor type 22; test: inhibition of lymphoid tyrosine phosphatase LYP – biochemical, pCAP fluorogenic substrate, fluorescence, set 3, SAR follow-up (AID 449727); format: functional
[21] = target: T8, Small ubiquitin-related modifier 1 (Homo sapiens, UniProt P63165); test: SUMO1 protein interaction blockers, potency – biochemical, fluorescence polarization, uHTS hits, dose response (AID 624382); format: functional; conditions: read-out: IC50_Mean
[22] = target: T9, Tyrosine-protein phosphatase non-receptor type 12 (Homo sapiens, UniProt Q05209); test: SAR Selectivity Analysis of small molecule inhibitors of PEST using pCAP in a fluorescence assay. [Related pubchem assays (depositor defined):AID1779, AID1784, AID2135]; format: functional
T9 sequence (Q05209 whole entry): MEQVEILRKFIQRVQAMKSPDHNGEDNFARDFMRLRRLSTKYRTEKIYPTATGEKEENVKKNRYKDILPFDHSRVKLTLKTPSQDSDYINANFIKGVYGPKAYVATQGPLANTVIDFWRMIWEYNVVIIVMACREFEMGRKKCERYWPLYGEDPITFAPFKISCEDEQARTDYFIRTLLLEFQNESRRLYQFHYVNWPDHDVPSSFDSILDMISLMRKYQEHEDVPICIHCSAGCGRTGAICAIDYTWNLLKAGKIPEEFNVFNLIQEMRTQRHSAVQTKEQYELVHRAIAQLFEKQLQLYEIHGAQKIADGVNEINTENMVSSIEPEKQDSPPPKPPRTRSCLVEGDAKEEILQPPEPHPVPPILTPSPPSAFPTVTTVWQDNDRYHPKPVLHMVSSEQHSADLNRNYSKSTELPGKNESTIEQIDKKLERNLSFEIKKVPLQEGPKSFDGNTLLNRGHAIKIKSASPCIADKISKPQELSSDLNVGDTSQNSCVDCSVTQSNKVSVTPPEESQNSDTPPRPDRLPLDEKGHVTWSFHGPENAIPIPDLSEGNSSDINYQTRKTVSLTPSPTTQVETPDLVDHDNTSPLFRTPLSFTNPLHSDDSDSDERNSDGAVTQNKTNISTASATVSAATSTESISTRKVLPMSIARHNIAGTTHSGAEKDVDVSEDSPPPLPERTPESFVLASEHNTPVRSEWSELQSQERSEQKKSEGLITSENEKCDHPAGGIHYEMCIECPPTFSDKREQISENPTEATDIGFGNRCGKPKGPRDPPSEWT

[23] = target: T10, Tyrosine-protein phosphatase non-receptor type 7 (Homo sapiens, UniProt P35236); test: inhibition of hematopoietic tyrosine phosphatase HePTP – biochemical, set 2, SAR follow-up (AID 449736); format: functional
T10 sequence (P35236 whole entry): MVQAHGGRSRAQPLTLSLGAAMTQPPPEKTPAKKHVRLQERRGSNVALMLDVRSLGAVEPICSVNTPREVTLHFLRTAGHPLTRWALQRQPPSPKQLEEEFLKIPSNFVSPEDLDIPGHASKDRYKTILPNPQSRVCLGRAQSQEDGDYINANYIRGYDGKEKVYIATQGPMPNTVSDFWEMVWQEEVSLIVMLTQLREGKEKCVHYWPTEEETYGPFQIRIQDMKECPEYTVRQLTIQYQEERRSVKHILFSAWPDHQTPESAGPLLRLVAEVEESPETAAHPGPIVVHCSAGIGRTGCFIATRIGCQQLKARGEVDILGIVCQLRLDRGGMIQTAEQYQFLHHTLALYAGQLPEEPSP

[24] = target: T7, SUMO-activating enzyme; test: blockers of UBC9-mediated SUMO conjugation – biochemical, AlphaScreen, SUMOylation inhibitor project, confirmation (AID 2018); format: functional
[25] = target: T6, Tyrosine-protein phosphatase non-receptor type 22; test: SAR LYP1 Fluorescent Assay using OMFP substrate for In Vitro dose response studies - Set 3. [Related pubchem assays (depositor defined):AID1779, AID1784, AID2140, AID2686]; format: functional
[26] = target: T8, Small ubiquitin-related modifier 1; test: SUMO1 protein-protein binding blockers, potency – biochemical, FRET, dose response (AID 624383); format: functional; conditions: read-out: IC50_Mean
[27] = target: T2, Kappa-type opioid receptor; test: SAR analysis of small molecule antagonists of the kappa opioid receptor via a luminescent beta-arrestin assay - Set 5. [Related pubchem assays (depositor defined):AID1778, AID1785]; format: functional
[28] = target: T2, Kappa-type opioid receptor; test: SAR analysis of small molecule antagonists of the kappa opioid receptor via a luminescent beta-arrestin assay - Set 4. [Related pubchem assays (depositor defined):AID1777, AID1778, AID1785, AID1786, AID1966, AID2133, AID2136, AID2285]; format: functional

T3 sequence (P41143 whole entry): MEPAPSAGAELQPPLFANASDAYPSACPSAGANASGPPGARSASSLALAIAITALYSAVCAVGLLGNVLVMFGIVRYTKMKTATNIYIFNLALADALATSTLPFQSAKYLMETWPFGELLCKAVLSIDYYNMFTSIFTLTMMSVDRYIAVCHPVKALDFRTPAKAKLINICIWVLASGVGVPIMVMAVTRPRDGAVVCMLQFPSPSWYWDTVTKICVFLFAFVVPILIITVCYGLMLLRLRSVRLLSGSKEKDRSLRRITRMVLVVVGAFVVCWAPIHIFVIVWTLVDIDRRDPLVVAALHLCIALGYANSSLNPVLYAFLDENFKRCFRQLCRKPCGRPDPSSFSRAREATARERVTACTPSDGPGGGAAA
T2 sequence (P41145 whole entry): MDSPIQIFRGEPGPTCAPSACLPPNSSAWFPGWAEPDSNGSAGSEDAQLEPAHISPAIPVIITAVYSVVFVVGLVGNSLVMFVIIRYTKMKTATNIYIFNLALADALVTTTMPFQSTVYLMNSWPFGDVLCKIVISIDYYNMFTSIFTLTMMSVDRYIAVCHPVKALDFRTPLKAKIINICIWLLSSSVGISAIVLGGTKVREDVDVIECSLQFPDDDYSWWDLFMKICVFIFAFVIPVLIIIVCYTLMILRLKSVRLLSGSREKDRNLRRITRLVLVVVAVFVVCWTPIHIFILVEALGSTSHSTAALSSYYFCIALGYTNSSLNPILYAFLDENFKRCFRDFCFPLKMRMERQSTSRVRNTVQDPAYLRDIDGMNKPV
T1 sequence (P35372 whole entry): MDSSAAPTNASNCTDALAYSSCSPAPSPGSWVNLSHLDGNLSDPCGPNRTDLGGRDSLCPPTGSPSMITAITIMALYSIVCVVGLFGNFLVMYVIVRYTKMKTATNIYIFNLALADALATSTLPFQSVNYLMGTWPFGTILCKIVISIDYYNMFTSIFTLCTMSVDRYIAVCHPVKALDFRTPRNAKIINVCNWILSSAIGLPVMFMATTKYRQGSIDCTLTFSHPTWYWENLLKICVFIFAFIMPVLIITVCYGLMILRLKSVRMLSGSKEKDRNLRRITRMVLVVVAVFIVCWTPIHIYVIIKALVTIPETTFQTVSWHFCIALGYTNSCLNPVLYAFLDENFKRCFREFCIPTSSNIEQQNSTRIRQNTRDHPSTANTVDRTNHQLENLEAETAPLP
T8 sequence (P63165 whole entry): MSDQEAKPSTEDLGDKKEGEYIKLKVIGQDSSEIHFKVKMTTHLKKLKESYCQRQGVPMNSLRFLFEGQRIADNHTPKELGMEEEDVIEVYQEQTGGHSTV
T7 sequence (Q9UBE0 whole entry): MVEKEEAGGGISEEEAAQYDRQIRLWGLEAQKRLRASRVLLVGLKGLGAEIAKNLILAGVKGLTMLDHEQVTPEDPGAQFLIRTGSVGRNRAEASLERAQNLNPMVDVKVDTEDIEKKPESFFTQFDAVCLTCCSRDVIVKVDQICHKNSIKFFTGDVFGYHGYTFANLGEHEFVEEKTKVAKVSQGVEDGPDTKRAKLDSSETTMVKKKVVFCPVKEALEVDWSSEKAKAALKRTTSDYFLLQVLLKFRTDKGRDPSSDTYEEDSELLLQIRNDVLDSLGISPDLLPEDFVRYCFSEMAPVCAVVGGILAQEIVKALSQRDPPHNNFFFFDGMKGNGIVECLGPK
T7 sequence (Q9UBT2 whole entry): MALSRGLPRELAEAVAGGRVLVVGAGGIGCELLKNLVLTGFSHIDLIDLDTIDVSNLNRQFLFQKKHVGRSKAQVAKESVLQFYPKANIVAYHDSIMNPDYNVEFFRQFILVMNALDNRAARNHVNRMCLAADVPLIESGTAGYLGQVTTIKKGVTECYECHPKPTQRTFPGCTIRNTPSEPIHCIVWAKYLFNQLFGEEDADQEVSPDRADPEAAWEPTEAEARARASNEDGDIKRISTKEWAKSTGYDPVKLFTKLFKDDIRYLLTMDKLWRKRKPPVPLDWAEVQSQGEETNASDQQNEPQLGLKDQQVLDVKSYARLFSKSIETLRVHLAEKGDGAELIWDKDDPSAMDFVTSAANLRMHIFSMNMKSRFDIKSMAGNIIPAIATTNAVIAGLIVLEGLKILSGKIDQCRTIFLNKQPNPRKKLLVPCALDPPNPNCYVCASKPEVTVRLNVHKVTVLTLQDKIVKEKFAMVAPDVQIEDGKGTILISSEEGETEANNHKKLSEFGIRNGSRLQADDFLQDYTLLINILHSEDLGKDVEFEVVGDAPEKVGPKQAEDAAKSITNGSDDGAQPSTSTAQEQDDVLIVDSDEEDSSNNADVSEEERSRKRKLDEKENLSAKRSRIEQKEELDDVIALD
Chain of Sphingosine 1-phosphate receptor 1 (P21453 whole entry): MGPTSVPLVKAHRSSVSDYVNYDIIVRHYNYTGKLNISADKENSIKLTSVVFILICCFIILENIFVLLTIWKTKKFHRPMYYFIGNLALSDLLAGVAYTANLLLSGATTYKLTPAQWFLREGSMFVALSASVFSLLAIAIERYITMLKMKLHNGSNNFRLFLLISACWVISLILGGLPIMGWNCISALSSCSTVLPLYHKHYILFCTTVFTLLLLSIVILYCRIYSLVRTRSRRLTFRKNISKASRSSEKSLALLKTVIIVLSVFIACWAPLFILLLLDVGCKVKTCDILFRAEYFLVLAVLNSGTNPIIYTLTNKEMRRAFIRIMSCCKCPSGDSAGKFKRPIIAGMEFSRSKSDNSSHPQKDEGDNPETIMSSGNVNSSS
Chain of Sphingosine 1-phosphate receptor 2 (O95136 whole entry): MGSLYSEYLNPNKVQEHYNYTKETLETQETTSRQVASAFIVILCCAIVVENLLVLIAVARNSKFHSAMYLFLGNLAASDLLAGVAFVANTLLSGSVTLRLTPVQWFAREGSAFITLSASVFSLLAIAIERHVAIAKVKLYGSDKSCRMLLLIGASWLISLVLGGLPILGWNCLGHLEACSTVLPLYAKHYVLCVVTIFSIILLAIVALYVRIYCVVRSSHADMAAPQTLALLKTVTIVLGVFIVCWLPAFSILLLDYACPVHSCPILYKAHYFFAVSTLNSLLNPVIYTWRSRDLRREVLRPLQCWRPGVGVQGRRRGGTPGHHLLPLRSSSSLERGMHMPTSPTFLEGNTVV

CCCCN(Cc1cc2ccccc2nc1O)C(=O)c1ccccn1
active: EC50 [2] 5.31 µM | EC50 [11] 8.1 µM
4.27 µM: EC50 [5]
inactive: EC50 [1] > 32 µM | IC50 [4] > 32 µM | EC50 [6] > 32 µM | EC50 [7] > 32 µM | IC50 [8] > 32 µM | IC50 [9] > 32 µM | EC50 [10] > 32 µM | IC50 [12] > 32 µM
3.16 µM: EC50 [3]

CCOC(=O)c1cc2ccc(OC(=O)c3ccco3)cc2oc1=O
> 50 µM (not active): EC50 [15]
active: EC50 [13] 0.785 µM | EC50 [14] 2.08 µM | EC50 [16] 1.99 µM

COc1cc(/C=C(\C#N)C(=O)Nc2cccc(C(=O)O)c2)ccc1OCc1ccc(Cl)cc1
inactive: IC50 [21] > 66.6 µM
active: IC50 [17] 6.89 µM | IC50 [18] 17.5 µM | IC50 [19] 4.78 µM | IC50 [20] 6.59 µM | IC50 [22] 2.6 µM | IC50 [23] 0.557 µM | IC50 [24] 3.61 µM | IC50 [25] 2.6 µM | IC50 [26] 13 µM

Cc1ccc(S(=O)(=O)NCc2ccc(C(=O)NCCN(C)[C@H](C)c3ccccc3)cc2)cc1
active: IC50 [27] 2.4 µM | IC50 [28] 3.38 µM

From ChEMBL document CHEMBL1201862, “PubChem BioAssay data set” (2004)
